Patent US20150224157A1, “PROCESS FOR THE PREPARATION OF HERBAL EXTRACT OF CASSIA TORA LEAVES FOR TREATING ANXIETY DISORDERS” (priority 2009, published 2015)

Assays:
[1] = cited from earlier work
[2] = test system: Swiss Albino male mice; test: Elevated plus maze test in mice; format: in vivo; details: Diazepam 1.5 mg/kg p.o.
Procedure: 1. Animals: Swiss Albino male mice 20-25 gm body weights were procured from Laboratory Animal Services Division of Central Drug Research Institute, Lucknow. All animals were kept in polyacrylic cage in environmentally controlled rooms (temperature 24-27° C. and humidity 60-65% with 12:12 light:dark cycle). Food was provided in the form of dry pellets and water ad libitum. Each animal was used only once in the behavioral tests and were habituated with the experimental room one day prior to the experiment All experiments involving animals complies with the ethical standards of animal handling and approved by Institutional Animal Ethics Committee.
Treatment of animals: Diazepam was diluted in distilled water, administered by […]. The extract was dissolved in 0.5% gum acacia suspension and administered by oral route.
Elevated plus maze test in mice: This test was used to evaluate the anti-anxiety activity. The test is based on the principal of conflict between exploration and fear of open/or closed arms. Apparatus consists of a raised stainless steel maze of four arms arranged in ‘+’ sign. Two of opposite arms are enclosed by raised walls whereas other arms are kept open. All the four arms consist of infrared beams at regular distance. The movement of animal across the arms is calculated by interruption of beams, which was analyzed by Maze Tracking Software (M/s. Columbus Instruments, USA). The trial was started by placing an animal on the central platform of the maze facing an open arm. Animals were given a period of 2 min to acclimatize with its surroundings. The time spent in each of the two types of arm was recorded during the next 5 min test period. The percentage open arm time were used as index of anxiety. The apparatus was cleaned thoroughly between trials with damp and dry towels.
Diazepam (1.5 mg/kg) and the Cassia tora leaves extract (100 mg/kg) was orally administered one hour prior to the experiment.

[3] = dose of 0.2 mg/mL; cited from earlier work
[4] = test system: aflatoxin B-1-8,9-epoxide formation; details: cited from earlier work

CC1=CCC(O)(C(C)C)CC1 (stereo not drawn) [4-terpineol]
IC50 against hydroxyl radicals [1]: 87.5 mu g/mL

CN1C(=O)CN=C(c2ccccc2)c2cc(Cl)ccc21 [Diazepam]
percentage of time spent in open arms in comparison to saline treated control mice ([2]; extract 100 mg/kg p.o., P<0.01): significant increase | % time spent in open arms ([2]; mice, extracts 100 mg/kg p.o.): 23.38% | Time spent in open arms (secs) out of 300 secs ([2]; mice, extracts 100 mg/kg p.o., one hour prior, Mean ± SEM): 70.16 ± 4.09 s

Cc1c(C)c2c(c(C)c1O)CC[C@@](C)(CCC[C@H](C)CCC[C@H](C)CCCC(C)C)O2 [alpha-tocopherol]
inhibition of peroxidation of linoleic acid [3]: 82%

O=C1c2ccc(O)cc2C(=O)c2ccc(O)cc21 [anthraflavine]
IC50 [4]: 26.9 µM

O=C1c2cccc(O)c2C(=O)c2cccc(O)c21 [anthrarufm, anthrarufin]
IC50 [4]: 11.5 µM

O=c1c(O)c(-c2ccc(O)c(O)c2)oc2cc(O)cc(O)c12 [quercetin]
IC50 against hydroxyl radicals [1]: 8.15 mu g/mL

O=C1c2ccccc2C(=O)c2c(O)ccc(O)c21 [quinizarin]
IC50 [4]: 4.12 µM
